Data taken from patent US20210045385A1, “PYRIDAZINONE-SUBSTITUTED KETOXIMES AS HERBICIDES” (FMC Corporation, priority 2018, published 2021).

What was measured:
Assay type in all cases: in vivo
[1] = test system: duck salad (Heteranthera limosa); experiment: Test D flooded paddy test, visual plant response rating; conditions: 250 g ai/ha, scale 0 to 100 (0 no effect, 100 complete control), 13 to 15 d
Description: (§1) Plant species in the flooded paddy test selected from rice (Oryza sativa), sedge umbrella (small-flower umbrella sedge, Cyperus difformis) duck salad (Heteranthera limosa), and barnyardgrass (Echinochloa crus-galli) were grown to the 2-leaf stage for testing. At time of treatment, test pots were flooded to 3 cm above the soil surface, treated by application of test compounds directly to the paddy water, and then maintained at that water depth for the duration of the test. Treated plants and controls were maintained in a greenhouse for 13 to 15 d, after which time all species were compared to controls and visually evaluated. Plant response ratings, summarized in Table D, are based on a scale of 0 to 100 where 0 is no effect and 100 is complete control. A dash (-) response means no test result.

[2] = test system: rice (Oryza sativa); experiment: as above; conditions: 250 g ai/ha, scale 0 to 100 (0 no effect, 100 complete control), 13 to 15 d
Description: as §1

[3] = test system: sedge umbrella (small-flower umbrella sedge, Cyperus difformis); experiment: as above; conditions: 250 g ai/ha, scale 0 to 100 (0 no effect, 100 complete control), 13 to 15 d
Description: as §1

[4] = test system: barnyardgrass (Echinochloa crus-galli); experiment: as above; conditions: 250 g ai/ha, scale 0 to 100 (0 no effect, 100 complete control), 13 to 15 d
Description: as §1

[5] = test system: kochia (Bassia scoparia); experiment: Test C preemergence, visual plant response rating
Description: (§2) Seeds of plant species selected from barnyardgrass (Echinochloa crus-galli), kochia (Bassia scoparia), ragweed (common ragweed, Ambrosia artemisiifolia), Italian ryegrass (Lolium mutiflorum), foxtail, giant (giant foxtail, Setaria faberi), foxtail, green (green foxtail, Setaria viridis), and pigweed (Amaranthus retroflexus) were planted into a blend of loam soil and sand and treated preemergence with a directed soil spray using test chemicals formulated in anon-phytotoxic solvent mixture which included a surfactant.
(§3) At the same time, plants selected from these weed species and also wheat (Triticum aestivum), corn (Zea mays), blackgrass (Alopecurus myosuroides), and galium (catchweed bedstraw, Galium aparine) were planted in pots containing the same blend of loam soil and sand and treated with post emergence applications of test chemicals formulated in the same manner. Plants ranged in height from 2 to 10 cm and were in the one- to two-leaf stage for the postemergence treatment. Treated plants and untreated controls were maintained in a greenhouse for approximately 10 d, after which time all treated plants were compared to untreated controls and visually evaluated for injury. Plant response ratings, summarized in Table C, are based on a 0 to 100 scale where 0 is no effect and 100 is complete control. A dash (-)response means no test result.

[6] = test system: pigweed (Amaranthus retroflexus); experiment: Test C preemergence, visual plant response rating
Description: as §2, §3

[7] = test system: Italian ryegrass (Lolium mutiflorum); experiment: Test C preemergence, visual plant response rating
Description: as §2, §3

[8] = test system: barnyardgrass (Echinochloa crus-galli); experiment: Test C preemergence, visual plant response rating
Description: as §2, §3

[9] = test system: foxtail, giant (giant foxtail, Setaria faberi); experiment: Test C preemergence, visual plant response rating
Description: as §2, §3

[10] = test system: blackgrass (Alopecurus myosuroides); experiment: Test C postemergence, visual plant response rating
Description: as §2, §3

[11] = test system: kochia (Bassia scoparia); experiment: Test C postemergence, visual plant response rating
Description: as §2, §3

[12] = test system: ragweed (common ragweed, Ambrosia artemisiifolia); experiment: Test C postemergence, visual plant response rating
Description: as §2, §3

[13] = test system: wheat (Triticum aestivum); experiment: Test C postemergence, visual plant response rating
Description: as §2, §3

[14] = test system: pigweed (Amaranthus retroflexus); experiment: Test C postemergence, visual plant response rating
Description: as §2, §3

[15] = test system: corn (Zea mays); experiment: Test C postemergence, visual plant response rating
Description: as §2, §3

[16] = test system: Italian ryegrass (Lolium mutiflorum); experiment: Test C postemergence, visual plant response rating
Description: as §2, §3

[17] = test system: barnyardgrass (Echinochloa crus-galli); experiment: Test C postemergence, visual plant response rating
Description: as §2, §3

[18] = test system: foxtail, giant (giant foxtail, Setaria faberi); experiment: Test C postemergence, visual plant response rating
Description: as §2, §3

[19] = test system: galium (catchweed bedstraw, Galium aparine); experiment: Test C postemergence, visual plant response rating
Description: as §2, §3

[20] = Test C, 31 g ai/ha, 0 is no effect, 100 is complete control
[21] = Test C, postemergence, 125 g ai/ha

SMILES | Plant response rating, Ducksalad (Flood) [1] | Plant response rating, Rice (Flood) [2] | Plant response rating, Sedge, Umbrella (Flood) [3] | Plant response rating, Barnyardgrass (Flood) [4] | Kochia plant response rating (0 to 100 scale) ([5]; 125 g ai/ha) | Kochia plant response rating (0 to 100 scale) [5, 20] | Pigweed plant response rating (0 to 100 scale) ([6]; 125 g ai/ha) | Pigweed plant response rating (0 to 100 scale) [6, 20] | Ryegrass, Italian plant response rating (0 to 100 scale) ([7]; 125 g ai/ha) | Ryegrass, Italian plant response rating (0 to 100 scale) [7, 20] | Barnyardgrass plant response rating (0 to 100 scale) ([8]; 125 g ai/ha) | Barnyardgrass plant response rating (0 to 100 scale) [8, 20] | Foxtail, Giant plant response rating (0 to 100 scale) ([9]; 125 g ai/ha) | Foxtail, Giant plant response rating (0 to 100 scale) [9, 20] | Blackgrass plant response rating (0 to 100 scale) ([10]; Postemergence, 31 g ai/ha) | Blackgrass plant response rating (0 to 100 scale) [10, 21] | Kochia plant response rating (0 to 100 scale) ([11]; Postemergence, 31 g ai/ha) | Kochia plant response rating (0 to 100 scale) [11, 21] | Ragweed plant response rating (0 to 100 scale) ([12]; Postemergence, 31 g ai/ha) | Ragweed plant response rating (0 to 100 scale) [12, 21] | other results
CCCCO/N=C(\c1cc(Cl)cc(Cl)c1Cl)c1c(O)c(C)nn(C)c1=O [Compound 183] | 0 | 0 | 0 | 0 | 0 | 0 | 10 | 0 | 80 | 0 | 70 | 0 | 100 | 40 | 0 | 0 | 0 | 10 | 20 | 100 | Wheat plant response rating (0 to 100 scale) ([13]; Postemergence, 31 g ai/ha): 0; Wheat plant response rating (0 to 100 scale) [13, 21]: 0; Pigweed plant response rating (0 to 100 scale) ([14]; Postemergence, 31 g ai/ha): 0; Pigweed plant response rating (0 to 100 scale) [14, 21]: 10; Corn plant response rating (0 to 100 scale) ([15]; Postemergence, 31 g ai/ha): 0; Corn plant response rating (0 to 100 scale) [15, 21]: 0; Ryegrass, Italian plant response rating (0 to 100 scale) ([16]; Postemergence, 31 g ai/ha): 40; Ryegrass, Italian plant response rating (0 to 100 scale) [16, 21]: 60; Barnyardgrass plant response rating (0 to 100 scale) ([17]; Postemergence, 31 g ai/ha): 0; Barnyardgrass plant response rating (0 to 100 scale) [17, 21]: 40; Foxtail, Giant plant response rating (0 to 100 scale) ([18]; Postemergence, 31 g ai/ha): 30; Foxtail, Giant plant response rating (0 to 100 scale) [18, 21]: 80; Galium plant response rating (0 to 100 scale) ([19]; Postemergence, 31 g ai/ha): 10; Galium plant response rating (0 to 100 scale) [19, 21]: 30
C#CCO/N=C(\c1cc(Cl)cc(Cl)c1Cl)c1c(O)c(C)nn(C)c1=O [Compound 184] | 0 | 0 | 0 | 0 | 0 | 0 | 60 | 50 | 100 | 0 | 90 | 0 | 100 | 60 | 0 | 0 | 10 | 10 | 60 | 100 | Wheat plant response rating (0 to 100 scale) ([13]; Postemergence, 31 g ai/ha): 0; Wheat plant response rating (0 to 100 scale) [13, 21]: 0; Pigweed plant response rating (0 to 100 scale) ([14]; Postemergence, 31 g ai/ha): 10; Pigweed plant response rating (0 to 100 scale) [14, 21]: 20; Corn plant response rating (0 to 100 scale) ([15]; Postemergence, 31 g ai/ha): 0; Corn plant response rating (0 to 100 scale) [15, 21]: 10; Ryegrass, Italian plant response rating (0 to 100 scale) ([16]; Postemergence, 31 g ai/ha): 0; Ryegrass, Italian plant response rating (0 to 100 scale) [16, 21]: 80; Barnyardgrass plant response rating (0 to 100 scale) ([17]; Postemergence, 31 g ai/ha): 50; Barnyardgrass plant response rating (0 to 100 scale) [17, 21]: 60; Foxtail, Giant plant response rating (0 to 100 scale) ([18]; Postemergence, 31 g ai/ha): 60; Foxtail, Giant plant response rating (0 to 100 scale) [18, 21]: 80; Galium plant response rating (0 to 100 scale) ([19]; Postemergence, 31 g ai/ha): 60; Galium plant response rating (0 to 100 scale) [19, 21]: 90
Cc1nn(C)c(=O)c(/C(=N/OC(C)C)c2cc(Cl)cc(Cl)c2Cl)c1O [Compound 185] | 85 | 60 | 95 | 45 | 50 | 0 | 100 | 70 | 100 | 10 | 70 | 0 | 100 | 90 | 10 | 30 | 10 | 50 | 90 | 100 | Wheat plant response rating (0 to 100 scale) ([13]; Postemergence, 31 g ai/ha): 50; Wheat plant response rating (0 to 100 scale) [13, 21]: 80; Pigweed plant response rating (0 to 100 scale) ([14]; Postemergence, 31 g ai/ha): 40; Pigweed plant response rating (0 to 100 scale) [14, 21]: 100; Corn plant response rating (0 to 100 scale) ([15]; Postemergence, 31 g ai/ha): 0; Corn plant response rating (0 to 100 scale) [15, 21]: 20; Ryegrass, Italian plant response rating (0 to 100 scale) ([16]; Postemergence, 31 g ai/ha): 70; Ryegrass, Italian plant response rating (0 to 100 scale) [16, 21]: 100; Barnyardgrass plant response rating (0 to 100 scale) ([17]; Postemergence, 31 g ai/ha): 10; Barnyardgrass plant response rating (0 to 100 scale) [17, 21]: 60; Foxtail, Giant plant response rating (0 to 100 scale) ([18]; Postemergence, 31 g ai/ha): 60; Foxtail, Giant plant response rating (0 to 100 scale) [18, 21]: 90; Galium plant response rating (0 to 100 scale) ([19]; Postemergence, 31 g ai/ha): 70; Galium plant response rating (0 to 100 scale) [19, 21]: 100
CCO/N=C(\c1cc(Cl)cc(Cl)c1Cl)c1c(O)c(C)nn(C)c1=O [Compound 186] | 0 | 0 | 0 | 0 | 0 | 0 | 100 | 50 | 100 | 40 | 90 | 40 | 100 | 100 | 10 | 20 | 50 | 50 | 50 | 90 | Wheat plant response rating (0 to 100 scale) ([13]; Postemergence, 31 g ai/ha): 20; Wheat plant response rating (0 to 100 scale) [13, 21]: 70; Pigweed plant response rating (0 to 100 scale) ([14]; Postemergence, 31 g ai/ha): 20; Pigweed plant response rating (0 to 100 scale) [14, 21]: 90; Corn plant response rating (0 to 100 scale) ([15]; Postemergence, 31 g ai/ha): 0; Corn plant response rating (0 to 100 scale) [15, 21]: 20; Ryegrass, Italian plant response rating (0 to 100 scale) ([16]; Postemergence, 31 g ai/ha): 80; Ryegrass, Italian plant response rating (0 to 100 scale) [16, 21]: 100; Barnyardgrass plant response rating (0 to 100 scale) ([17]; Postemergence, 31 g ai/ha): 30; Barnyardgrass plant response rating (0 to 100 scale) [17, 21]: 70; Foxtail, Giant plant response rating (0 to 100 scale) ([18]; Postemergence, 31 g ai/ha): 60; Foxtail, Giant plant response rating (0 to 100 scale) [18, 21]: 90; Galium plant response rating (0 to 100 scale) ([19]; Postemergence, 31 g ai/ha): 90; Galium plant response rating (0 to 100 scale) [19, 21]: 100
